Test results published in US20260217671A1, “COMPOUND FOR PREVENTING AND/OR TREATING NEURODEGENERATIVE DISEASE” (TYK MEDICINES, INC., priority 2023, published 2026).

Legend:
[1] = Pharmacokinetic experiment (gavage, plasma); type: in vivo; details: rat, gavage (p.o.) 10 mg/kg; for AUC(0-t) / Cmax / Tmax: po
Description: Test Example 1 Pharmacokinetic Experiment
Accurately weighed approximately 10 mg of the test sample, dissolved in DMSO to a total volume of 10%, then slowly added 0.5% MC solvent to a total volume of 90% while stirring, sonicated, vortexed, and obtained a solution of visually homogeneous formulation with a concentration of 1 mg/mL; freshly prepared before use.
Pipetted 0.2 mL of the sample into a 1.5 mL centrifuge tube and stored at −80° C. for use in the concentration analysis of the drug solution.
The animals were housed in rat cages and fasted for at least 10 hours prior to the experiment, but had access to water. On the day of the experiment, the animals were weighed and marked on the tail. Blank blood samples were collected prior to drug administration. Blood was collected from the tail vein.
• Route of administration: gavage (p.o.) • Dosage concentration: 1 mg/ml • Dosage: 10 mg/kg • Volume: 10 mL/kg • Procedure: Caught the rat with left hand wearing bite-resistant gloves, hold it upright, inserted the gavage needle into its mouth and throat, and injected the drug into its stomach after confirming that there was no obvious resistance.
Test animals were sampled at 0.5 h, 1 h, 2 h, 4 h, 6 h, 8 h, 12 h, and 24 h post-administration, collected 0.1-0.2 ml of whole blood into EDTA-Na2 anticoagulant tubes, inverted the tubes 3-4 times to mix thoroughly, and centrifuged at 4° C. and 2000 g for 5 minutes to separate the upper layer of plasma. The plasma was promptly transferred to −80° C. for storage and analysis. Blood collection was performed via the tail vein.
(§1) 5. Sample Analysis and Data Processing
(§2) A quantitative detection method for the target compounds was established using Shimadzu liquid chromatography and Triple Quad TM 6500+AB mass spectrometry. The concentration of the parent drug in plasma was analyzed. The analysis results were controlled for variability using quality control samples, and the accuracy of the quality control samples should be between 80% and 120%.
The non-compartmental model in the winnonlin Phoenix software was used to calculate the main pharmacokinetic parameters. These included the area under the pharmacokinetic curve (AUC(0-t) and AUC(0-∞)), elimination half-life (T1/2), maximum plasma concentration (Cmax), and time to reach maximum plasma concentration (Tmax).

[2] = tested on: brain slices containing the hippocampus (CA3 stimulation, CA1 recording); assay: Electrophysiological LTP recording (fEPSP in hippocampal brain slices); type: cell-based, C57BL/6J mice; details: for activation effects on LTP (in words): same detection method as Table 5
Description: Test Example 3 Electrophysiological LTP Recording
3.1 Preparation of Brain Slices:
C57BL/6J mice aged 6-8 weeks was taken and anesthetized, then quickly decapitated. The scalp was cut open, and removed the skull and dura mater. Quickly removed the whole brain and placed it in 0-4° C. artificial cerebrospinal fluid (ACSF) saturated with 95% O2 and 5% CO2 to cool it slightly. Resected the cerebellum and one-third of the forebrain, divided the brain into two halves along the midline, and dissected the hippocampus along the cortical margin from the medial side of the brain. The brain tissue containing the hippocampus was fixed on a slide dish with glue, and cut into 400-micron-thick brain slices in the coronal plane by a vibrating microtome. The brain slices were then placed in an incubation chamber on a nylon mesh submerged beneath the liquid surface, continuously supplied with a mixed gas, and incubated at 34° C. in a water bath for 0.5 h. The slices were then transferred to room temperature (26±1° C.) for further incubation until ready for use, with the experiment commencing 2-3 hours later.
3.2 In vitro brain slice potential recording:
Under direct visualization with a surgical microscope, a bipolar metal tungsten wire stimulation electrode with exposed tip was placed on the Schaffer collateral pathway of the CA3 region. The stimulation electrode was connected to the stimulator via an isolator, and the recording electrode was connected to a […] via a microelectrode amplifier, and then connected to data acquisition software.
3.3 Electrophysiological recording:
Before recording field excitatory postsynaptic potentials (fEPSPs), the brain slice was transferred to a recording chamber, and continuously perfused the cerebrospinal fluid in a water bath with a mixture of gases (95% 02, 5% CO2). The stimulation electrode was inserted into the CA3 region of the hippocampus, and the recording electrode was inserted into the CA1 region of the hippocampus. When approaching the target location, the insertion depth of the stimulation electrode and recording electrode was slowly and precisely adjusted. At the same time, a pulse with a width of 1 ms was applied every 10-20 s, and the stimulus intensity was adjusted until the optimal fEPSP was achieved. Then the electrode position was fixed, and a stimulus intensity achieving 30-40% of the maximum response elicited at the optimal fEPSP was set as a stimulus intensity to record a baseline of fEPSP. The recording was continued for 20-30 min to establish a stable baseline value. Subsequently, perfusion administration was performed (initial exploratory dose of 30 μM), with the administration duration ranging from 20-30 minutes (depending on the drug's efficacy). If the drug enhanced or reduced fEPSP, normal ACSF was used for elution for 40-60 minutes to observe whether the enhanced effect could be sustained over the long term: if there was no significant change in fEPSP, the experiment was terminated. […] Experimental data and images were processed using Clampfit software.
4. Data Statistics and Analysis:
All experimental data were expressed as mean±standard error (Mean f SEM). All statistical analyses were performed using one-way ANOVA. Significant differences were indicated as follows: *p≤0.05, **p≤0.01, ***p≤0.001. p>0.05 indicated no significant difference.

[3] = Brain-penetrating pharmacokinetic study (plasma, brain tissue); type: in vivo, Sprague-Dawley (SD) rat; details: SD rat, gavage (p.o.) 10 mg/kg single dose; for Kp: Sprague-Dawley, brain/plasma, po, read-out: Ratio of total drug in Brain tissue/plasma(B/P)
Description: Test Example 2 Brain-Penetrating Pharmacokinetic Study
Solvent for Administration: 5% DMSO+10% Solutol HS15+85% physiological saline
Formulation preparation process: weighed an appropriate amount of powder, added an appropriate volume of DMSO, vortexed, then added an appropriate volume of Solutol solution, vortexed, and finally added an appropriate amount of physiological saline, vortexed and sonicated to obtain a homogeneous, clear formulation solution.
Two samples of the formulation were retained before administration, and the remaining formulation after administration was stored at 2-8° C. for shipment.
Laboratory animals were housed in the animal facility of Suzhou Xihua New Drug Development Co., Ltd. (license number: SYXK(Su)2021-0019). The animal facility was equipped with an air conditioning system and had good ventilation. The indoor temperature was maintained 20° C.-26° C., and the humidity was maintained 40%-70%4. Artificial lighting was used in the animal rooms, with 12 hours of light and 12 hours of darkness (except when work lighting was required for experimental operations and cleaning). The experimental animals were allowed to eat and drink water freely.
After purchase, the animals were fed normally for at least 3 days. […] Each rat was marked with a tail tag. Animals in the oral administration group were fasted overnight on the day before administration and resumed feeding 4 hours after administration, and free access to water.
• Route of administration: gavage (p.o.) • Concentration: 1 mg/ml • Dose: 10 mg/kg • Volume: 10 mL/kg • Frequency: Single dose
Before administration, checked the condition of the drug formulation and ensured its uniformity by swirling, stirring, or shaking. Calculated the theoretical dosage volume for each SD rat in each group using the following formula.
4. Sample Collection and Processing
Samples were collected from experimental rats at 0.5 h, 1 h, 2 h, 4 h, 6 h, 8 h, and 24 h after administration.
Plasma: At each time point, 0.15 mL of whole blood was collected via the jugular vein and placed in a tube containing anticoagulant (3 μL of 15% EDTA-K2 solution). The tubes were stored on wet ice and centrifuged within 1 hour (2,000 g, 2-8° C., for 10 minutes) to obtain plasma. The plasma was stored in pre-chilled centrifuge tubes, rapidly frozen in dry ice, and then stored at −60° C. or lower in an ultra-low temperature freezer until LC-MS/MS analysis.
Cerebrospinal fluid: the rats was euthanized using the carbon dioxide method. ~50 μL of cerebrospinal fluid was collected using a puncture method, 1 mL syringe was used with the needle bevel facing upward and the needle tip nearly horizontal to puncture the subarachnoid space, secured the needle and slowly withdrew the cerebrospinal fluid. The sample was stored in dry ice within 30 minutes after collection, then transferred it to a −90~−60° C. environment.
Brain tissue: A cardiac perfusion was performed first, followed by brain tissue extraction. Under deep terminal anesthesia, approximately 8 milliliters of physiological saline were used for cardiac perfusion to flush the remaining blood from the brain tissue out of the circulation. After extraction, the brain tissue was gently washed once with frozen physiological saline, blotted up the water, weighed, and then transferred to a storage environment at −90~−60° C. for cryopreservation.
as §1
as §2, with “the sample” for “plasma”
Winnonlin Phoenix 8.1.0.3530 was used to calculate pharmacokinetic parameters: Tmax, Cmax, AUC(0-t), AUC(0-∞), Tu2, MRT(0-∞), etc. […]

Compound | AUC(0-t) [1] [ng·h/mL] | Cmax [1] [ng/mL] | Tmax [1] [min] | activation effects on LTP (in words) [2] | also measured
C[C@@H](OC1=CC(=O)N[C@H]1Cc1ccccn1)c1ccc(F)cc1 [Compound T-51] | 5700 | 2970 | 15 | excellent activation effects on LTP | pharmacokinetic properties (in words) [1]: excellent pharmacokinetic properties
C[C@H](c1ncccc1F)[C@@H]1NC(=O)C=C1OCc1ccc(F)cc1 [Compound T-75] | – | – | – | excellent activation effects on LTP | –
C[C@@H](OC1=CC(=O)N[C@H]1Cc1ncccc1F)c1ccc(F)cc1 [Compound T-54] | – | – | – | excellent activation effects on LTP | –
O=C1C=C(OCc2ccc(F)cc2)[C@H](Cc2ccccc2)N1 [Compound 50561, reference compound] | 2500 | 838 | 79.8 | – | –
C[C@@H](OC1=CC(=O)N[C@H]1[C@@H](C)c1ncccc1F)c1ccc(F)cc1 [Compound T-100] | – | – | – | excellent activation effects on LTP | –
C[C@H](c1ncccc1F)[C@@H]1NC(=O)C=C1O[C@H](C)c1ccc(F)cc1 [Compound T-99] | – | – | – | excellent activation effects on LTP | –
C[C@@H](OC1=CC(=O)N[C@H]1[C@@H](C)c1ccccn1)c1ccc(F)cc1 [Compound T-80] | – | – | – | excellent activation effects on LTP | –
C[C@@H](c1ccccc1)[C@@H]1NC(=O)C=C1OCc1ccc(F)cc1 [Compound T-95] | 5800 | 1030 | 49.8 | – | pharmacokinetic properties (in words) [1]: excellent pharmacokinetic properties
C[C@H](c1ccccn1)[C@@H]1NC(=O)C=C1OCc1ccc(F)cc1 [Compound T-73] | – | – | – | excellent activation effects on LTP | –
O=C1C=C(OCc2ccc(F)cc2)[C@H](Cc2ncccc2F)N1 [Compound T-36] | 2470 | 1420 | 25.2 | excellent activation effects on LTP | –
C[C@H](c1ccccn1)[C@@H]1NC(=O)C=C1O[C@H](C)c1ccc(F)cc1 [Compound T-79] | – | – | – | excellent activation effects on LTP | –
C[C@@H](c1ncccc1F)[C@@H]1NC(=O)C=C1OCc1ccc(F)cc1 [Compound T-76] | – | – | – | excellent activation effects on LTP | –
C[C@@H](c1ccccn1)[C@@H]1NC(=O)C=C1OCc1ccc(F)cc1 [Compound T-74] | – | – | – | excellent activation effects on LTP | –
O=C1C=C(OCc2ccc(F)cc2)[C@H](Cc2ccccn2)N1 [Compound T-01] | 3500 | 1020 | 79.8 | – | Total drug exposure (AUC) in brain tissue ([3]; brain tissue): 1198 ng·h/mL; Total drug exposure (AUC) in brain tissue ([3]; plasma): 1929 ng·h/mL; Kp [3]: 0.621; electrical signal conduction in brain slices (in words) ([2]; perfusion administration, hippocampal slices): significantly enhanced electrical signal conduction in brain slices; activation of LTP compared with the control compound (in words) ([2]; versus Compound 50561): higher activation of LTP
C[C@@H](OC1=CC(=O)N[C@H]1Cc1ccccc1)c1ccc(F)cc1 [Compound T-47] | 6730 | 1890 | 90 | excellent activation effects on LTP | Total drug exposure (AUC) in brain tissue ([3]; brain tissue): 11452 ng·h/mL; Total drug exposure (AUC) in brain tissue ([3]; plasma): 5529 ng·h/mL; Kp [3]: 2.07; pharmacokinetic properties (in words) [1]: excellent pharmacokinetic properties
[2H]C([2H])(OC1=CC(=O)N[C@H]1Cc1ccccc1)c1ccc(F)cc1 [Compound T-45] | 3410 | 1880 | 30 | – | –
